Test results published in PubChem BioAssay AID2060617 (Molecular Pharmacology Branch, DTP, NCI, 2025).

Tested on: 485368-065-R4-J2-PDC spheroids with HUVEC/MSC, viability
Assay: Anticancer human tumor 485368-065-R4-J2-PDC patient-derived pancreatic carcinoma cell line growth inhibition [CLK]
Details: for IC50: curve of first compound; for viability, T/C: stronger effect = lower value
In short: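 Patient-derived tumor cells grown as complex spheroids with HUVEC endothelial cells and mesenchymal stem cells, treated with drug combinations. Concentrations descend in half-log steps from near clinical Cmax, or from 10 microM if Cmax unknown.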

[1] = second compound 0.0316 µM, first compound 0.0316 µM
[2] = second compound 0.0316 µM, first compound 0.1 µM
[3] = second compound 0.0316 µM, first compound 0.316 µM
[4] = second compound 0.0316 µM, first compound 1 µM
[5] = second compound 0.0316 µM, first compound 3.16 µM
[6] = second compound 0.0316 µM, first compound 10 µM
[7] = second compound 0.1 µM, first compound 0.0316 µM
[8] = second compound 0.1 µM, first compound 0.1 µM
[9] = second compound 0.1 µM, first compound 0.316 µM
[10] = second compound 0.1 µM, first compound 1 µM
[11] = second compound 0.1 µM, first compound 3.16 µM
[12] = second compound 0.1 µM, first compound 10 µM
[13] = second compound 0.316 µM, first compound 0.0316 µM
[14] = second compound 0.316 µM, first compound 0.1 µM
[15] = second compound 0.316 µM, first compound 0.316 µM
[16] = second compound 0.316 µM, first compound 1 µM
[17] = second compound 0.316 µM, first compound 3.16 µM
[18] = second compound 0.316 µM, first compound 10 µM
[19] = second compound 1 µM, first compound 0.0316 µM
[20] = second compound 1 µM, first compound 0.1 µM
[21] = second compound 1 µM, first compound 0.316 µM
[22] = second compound 1 µM, first compound 1 µM
[23] = second compound 1 µM, first compound 3.16 µM
[24] = second compound 1 µM, first compound 10 µM
[25] = second compound 3.16 µM, first compound 0.0316 µM
[26] = second compound 3.16 µM, first compound 0.1 µM
[27] = second compound 3.16 µM, first compound 0.316 µM
[28] = second compound 3.16 µM, first compound 1 µM
[29] = second compound 3.16 µM, first compound 3.16 µM
[30] = second compound 3.16 µM, first compound 10 µM
[31] = second compound 10 µM, first compound 0.0316 µM
[32] = second compound 10 µM, first compound 0.1 µM
[33] = second compound 10 µM, first compound 0.316 µM
[34] = second compound 10 µM, first compound 1 µM
[35] = second compound 10 µM, first compound 3.16 µM
[36] = second compound 10 µM, first compound 10 µM
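Further: spheroids exposed to compounds for seven days.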
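Wherever viability, T/C is given: 100% = DMSO vehicle control wells.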

`CCCS(=O)(=O)Nc1ccc(F)c(C(=O)c2c[nH]c3ncc(-c4ccc(Cl)cc4)cc23)c1F` + CNC(=O)c1ccc(Nc2nc(OC3CCCC3)c3c(-c4ccc5nc(C)oc5c4)c[nH]c3n2)c(OC)c1 gave an IC50 (second compound 0.0316 µM) greater than 10 µM, an IC50 (second compound 0.1 µM) greater than 10 µM and an IC50 (second compound 0.316 µM) greater than 10 µM. It also gave an IC50 (second compound 1 µM) greater than 10 µM, an IC50 (second compound 3.16 µM) greater than 10 µM and an IC50 (second compound 10 µM) greater than 10 µM. It also gave a viability, T/C [1] of 92.6%, a viability, T/C [2] of 95.1% and a viability, T/C [3] of 93.2%. For the same compound, the viability, T/C [4] was 97.5%, the viability, T/C [5] was 91.6% and the viability, T/C [6] was 114%. It also gave a viability, T/C [7] of 100%, a viability, T/C [8] of 99.5% and a viability, T/C [9] of 95.9%. It also gave a viability, T/C [10] of 90.1%, a viability, T/C [11] of 98.3% and a viability, T/C [12] of 112%. The viability, T/C [13] was 90%, the viability, T/C [14] was 84.8% and the viability, T/C [15] was 87.9%. For the same compound, the viability, T/C [16] was 85.4%, the viability, T/C [17] was 95.9% and the viability, T/C [18] was 104%. It also gave a viability, T/C [19] of 83.5%, a viability, T/C [20] of 80.7% and a viability, T/C [21] of 85.7%. It also gave a viability, T/C [22] of 78.9%, a viability, T/C [23] of 89.7% and a viability, T/C [24] of 105%. It also gave a viability, T/C [25] of 70.7%, a viability, T/C [26] of 75.5% and a viability, T/C [27] of 85.4%. The viability, T/C [28] was 78.9%, the viability, T/C [29] was 95.2% and the viability, T/C [30] was 99.5%. The viability, T/C [31] was 75.7%, the viability, T/C [32] was 73.6% and the viability, T/C [33] was 86.7%. The viability, T/C [34] was 78.9%, the viability, T/C [35] was 90.1% and the viability, T/C [36] was 93.4%.

`C#Cc1c(F)ccc2cc(O)cc(-c3ncc4c(N5CC6CCC(C5)N6)nc(OCC56CCCN5CC(F)C6)nc4c3F)c12` (centres undefined) + CNC(=O)c1ccc(Nc2nc(OC3CCCC3)c3c(-c4ccc5nc(C)oc5c4)c[nH]c3n2)c(OC)c1 was tested, and the IC50 (second compound 0.0316 µM) was greater than 10 µM, the IC50 (second compound 0.1 µM) was greater than 10 µM and the IC50 (second compound 0.316 µM) was greater than 10 µM. The IC50 (second compound 1 µM) was greater than 10 µM, the IC50 (second compound 3.16 µM) was 6.95 µM and the IC50 (second compound 10 µM) was 5.79 µM. For the same compound, the viability, T/C [1] was 103%, the viability, T/C [2] was 115% and the viability, T/C [3] was 90.3%. It also gave a viability, T/C [4] of 102%, a viability, T/C [5] of 104% and a viability, T/C [6] of 108%. For the same compound, the viability, T/C [7] was 96.1%, the viability, T/C [8] was 99.8% and the viability, T/C [9] was 108%. For the same compound, the viability, T/C [10] was 98.4%, the viability, T/C [11] was 103% and the viability, T/C [12] was 108%. For the same compound, the viability, T/C [13] was 91.4%, the viability, T/C [14] was 86.5% and the viability, T/C [15] was 96.7%. For the same compound, the viability, T/C [16] was 87%, the viability, T/C [17] was 75.8% and the viability, T/C [18] was 70.3%. For the same compound, the viability, T/C [19] was 82.8%, the viability, T/C [20] was 79.4% and the viability, T/C [21] was 80.3%. For the same compound, the viability, T/C [22] was 71.5%, the viability, T/C [23] was 68.8% and the viability, T/C [24] was 52.3%. It also gave a viability, T/C [25] of 77.5%, a viability, T/C [26] of 72.5% and a viability, T/C [27] of 77.1%. It also gave a viability, T/C [28] of 73.2%, a viability, T/C [29] of 59.4% and a viability, T/C [30] of 45%. For the same compound, the viability, T/C [31] was 74.7%, the viability, T/C [32] was 73.1% and the viability, T/C [33] was 68.5%. It also gave a viability, T/C [34] of 67.7%, a viability, T/C [35] of 57% and a viability, T/C [36] of 43.1%.
